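Growth conditions: 96-well plates. Treatment: test compound, 48 hours, 5 concentrations. Analysis: linear interpolation between bracketing concentrations; unreached endpoints set to highest concentration. At the GI50, growth is halved. The concentration for full growth arrest is given as TGI.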
Legend:
Assay in all cases: NCI anticancer screen, dose series, 48 h
COLO 205 colon = system: COLO 205 colon
HCT-116 colon = system: HCT-116 colon
HL-60(TB) leukemia = system: HL-60(TB) leukemia
MDA-MB-435 = system: MDA-MB-435
OVCAR-8 ovarian = system: OVCAR-8 ovarian
PC-3 prostate = system: PC-3 prostate
RPMI-8226 leukemia = system: RPMI-8226 leukemia
SK-OV-3 ovarian = system: SK-OV-3 ovarian
U251 CNS = system: U251 CNS
UACC-62 melanoma = system: UACC-62 melanoma

| SMILES | GI50 (COLO 205 colon) [µM] | TGI (COLO 205 colon) [µM] | GI50 (HCT-116 colon) [µM] | TGI (HCT-116 colon) [µM] | GI50 (HL-60(TB) leukemia) [µM] | TGI (HL-60(TB) leukemia) [µM] | GI50 (MDA-MB-435) [µM] | TGI (MDA-MB-435) [µM] | GI50 (OVCAR-8 ovarian) [µM] | TGI (OVCAR-8 ovarian) [µM] | GI50 (PC-3 prostate) [µM] | TGI (PC-3 prostate) [µM] | GI50 (RPMI-8226 leukemia) [µM] | TGI (RPMI-8226 leukemia) [µM] | GI50 (SK-OV-3 ovarian) [µM] | TGI (SK-OV-3 ovarian) [µM] | GI50 (U251 CNS) [µM] | TGI (U251 CNS) [µM] | GI50 (UACC-62 melanoma) [µM] | TGI (UACC-62 melanoma) [µM] |
| --- | --- | --- | --- | --- | --- | --- | --- | --- | --- | --- | --- | --- | --- | --- | --- | --- | --- | --- | --- | --- |
| Clc1ccccc1-c1nc2ccccc2[nH]1 | > 100 | > 100 | > 100 | > 100 | > 100 | > 100 | > 100 | > 100 | > 100 | > 100 | > 100 | > 100 | 94 | > 100 | > 100 | > 100 | > 100 | > 100 | > 100 | > 100 |
| Cc1c(N2C(=O)/C(=C\c3ccc(O)cc3)N=C2c2ccccc2)c(=O)n(-c2ccccc2)n1C | > 100 | > 100 | > 100 | > 100 | > 100 | > 100 | > 100 | > 100 | > 100 | > 100 | > 100 | > 100 | > 100 | > 100 | > 100 | > 100 | > 100 | > 100 | > 100 | > 100 |
| COc1cc(C(=O)/C=C/c2c(-c3ccc(F)cc3)nc3sccn23)cc(OC)c1OC | 2.27 | 6.98 | 2.31 | 8.75 | 1.61 | 4.19 | 2.13 | 7.92 | 2.4 | > 21.4 | 3.57 | > 46.2 | 2.59 | 44.6 | 2.68 | 11.9 | 2.41 | 9.23 | 2.28 | 13.9 |
| O=C(Cc1ccc(/C=C/C(=O)c2ncc[nH]2)cc1)Nc1ccc(Br)cc1 | 2.57 | 5.74 | 0.847 | 2.54 | 2.78 | 13.9 | 3.7 | 15.6 | 4.04 | > 16.7 | 2.51 | 10.2 | 0.705 | 4.06 | 8.2 | > 16.7 | 0.704 | 2.56 | 2.85 | 6.11 |
| COc1cc(C2c3cc4c(cc3C3OC(=O)C2C3CO)OCO4)cc(OC)c1OC (stereo not given) | 0.0188 | 0.0372 | 0.0191 | > 100 | 0.0207 | 0.0748 | 0.01 | 0.0374 | 0.0274 | > 100 | 0.0285 | > 100 | 0.0282 | > 100 | 0.0217 | 0.0722 | 0.0354 | > 100 | < 0.0136 | > 100 |
| Cn1cc(-c2csc(-c3cn(CCN4CCOCC4)c4ccc(F)cc34)n2)c2cccnc21 | 2.08 | 5.23 | 3 | 10.2 | 2.52 | 6.87 | 2.77 | 10.5 | 2.75 | 7.88 | 2.14 | 6.64 | 1.68 | 4.96 | 5.41 | 51.6 | 3.35 | 22.2 | 2.06 | 5.34 |
| Cc1cc(-c2ccccc2)c(C)n1Cc1ccc(Cl)cc1 | 5.96 | 27.8 | 3.8 | 23.4 | 4.3 | 55.8 | 0.368 | 2.55 | 5.95 | > 100 | 5.18 | > 100 | 3.83 | 61.6 | 5.92 | > 100 | 4.65 | > 100 | 3.44 | > 100 |
| NC(=O)Nc1ccc2ncnc(Nc3ccc(Cl)cc3)c2c1 | 30.6 | > 100 | 24.9 | 98.2 | 25.9 | 64.4 | 17.8 | 44.6 | 20.4 | > 96.6 | 19.4 | > 96.2 | 24.3 | > 88.8 | 4.5 | 34.1 | 25.4 | > 100 | 14.3 | 37.3 |
| CC1OC(OC2C(OC3C[C@@]4(C)C(C[C@H](O)[C@H]5[C@H](C6(C)CCC(C(C)(C)O)O6)CCC54C)[C@]4(C)CC[C@@H](O)C(C)(C)C34)OC(CO)C(O)C2O)C(O)C(O)C1O (stereo not given in full) (tested in a mixture with another compound) |  | > 100 |  | > 100 |  | > 100 |  | > 100 |  | > 100 |  | > 100 |  | > 100 |  | > 100 |  | > 100 |  | > 100 |
| O=C(c1ccc(O)cc1)c1ccc(C(=O)c2ccc(O)cc2)cc1 | > 100 | > 100 | > 100 | > 100 | > 100 | > 100 | > 100 | > 100 | 20.8 | > 100 | > 100 | > 100 | 5.21 | > 100 | 23.3 | > 100 | 16.9 | > 100 | > 100 | > 100 |
| c1ccc(Cn2cc3c(c2)-c2oncc2CC3)cc1 | 0.467 | 2.55 | 0.408 | > 100 | 0.274 | 0.939 | 0.311 | > 100 | 2.79 | > 39.1 | 1.99 | > 100 | 0.285 | 2.38 | 0.767 | 26.5 | 0.552 | 33 | 0.723 | 97.3 |
| O=C(Cc1ccccc1)Nc1nnc(CCSCCc2nnc(NC(=O)Cc3ccccc3)s2)s1 | > 100 | > 100 | 59.8 | > 100 | 4.26 | 65.4 | 58.2 | > 100 | 6.12 | > 100 | 4.55 | > 100 | 5.67 | > 100 | 18.7 | 71.3 | 4.1 | 18.3 | 19.2 | > 100 |

Source: PubChem BioAssay (NCI)
